Values of other authors as cited in patent publication US12409106B2, “Medical material” (Senju USA, Inc., priority 2022, dated 2025).

Details: Soong T. Chiang et al., Pharmacotherapy 1996

topical 50% effective concentration EC50 on pain after oral surgery: 0.36 µg/mL
Compound: Nc1c(CC(=O)O)cccc1C(=O)c1ccc(Br)cc1 [bromfenac]
